Results taken from US11111220B2, “Propanamine derivatives for treating pain and pain related conditions” (ESTEVE PHARMACEUTICALS, S.A., priority 2017, dated 2021).

target: Human α2δ-1 Subunit of Cav2.2 Calcium Channel (Homo sapiens, UniProt P54289); experiment: Binding assay to human α2δ-1 subunit of Cav2.2 calcium channel ([3H]-Gabapentin); settings: Table 1; human α2δ-1 enriched membranes, 15 nM [3H]-Gabapentin; read-out: Ki(nM) alpha2delta Hum
Protocol: Binding Assay to Human α2δ-1 Subunit of Cav2.2 Calcium Channel.
Human α2δ-1 enriched membranes (2.5 μg) were incubated with 15 nM of radiolabeled [3H]-Gabapentin in assay buffer containing Hepes-KOH 10 mM, pH 7.4.
NSB (non specific binding) was measured by adding 10 μM pregabalin. The binding of the test compound was measured in five different concentrations. After 60 min incubation at 27° C., binding reaction was terminated by filtering through Multiscreen GF/C (Millipore) presoaked in 0.5% polyethyleneimine in Vacuum Manifold Station, followed by 3 washes with ice-cold filtration buffer containing 50 mM Tris-HCl, pH 7.4.
Filter plates were dried at 60° C. for 1 hour and 30 μl of scintillation cocktail were added to each well before radioactivity reading.
Readings were performed in a Trilux 1450 Microbeta radioactive counter (Perkin Elmer).

Chain of Human α2δ-1 Subunit of Cav2.2 Calcium Channel (P54289 25-1103): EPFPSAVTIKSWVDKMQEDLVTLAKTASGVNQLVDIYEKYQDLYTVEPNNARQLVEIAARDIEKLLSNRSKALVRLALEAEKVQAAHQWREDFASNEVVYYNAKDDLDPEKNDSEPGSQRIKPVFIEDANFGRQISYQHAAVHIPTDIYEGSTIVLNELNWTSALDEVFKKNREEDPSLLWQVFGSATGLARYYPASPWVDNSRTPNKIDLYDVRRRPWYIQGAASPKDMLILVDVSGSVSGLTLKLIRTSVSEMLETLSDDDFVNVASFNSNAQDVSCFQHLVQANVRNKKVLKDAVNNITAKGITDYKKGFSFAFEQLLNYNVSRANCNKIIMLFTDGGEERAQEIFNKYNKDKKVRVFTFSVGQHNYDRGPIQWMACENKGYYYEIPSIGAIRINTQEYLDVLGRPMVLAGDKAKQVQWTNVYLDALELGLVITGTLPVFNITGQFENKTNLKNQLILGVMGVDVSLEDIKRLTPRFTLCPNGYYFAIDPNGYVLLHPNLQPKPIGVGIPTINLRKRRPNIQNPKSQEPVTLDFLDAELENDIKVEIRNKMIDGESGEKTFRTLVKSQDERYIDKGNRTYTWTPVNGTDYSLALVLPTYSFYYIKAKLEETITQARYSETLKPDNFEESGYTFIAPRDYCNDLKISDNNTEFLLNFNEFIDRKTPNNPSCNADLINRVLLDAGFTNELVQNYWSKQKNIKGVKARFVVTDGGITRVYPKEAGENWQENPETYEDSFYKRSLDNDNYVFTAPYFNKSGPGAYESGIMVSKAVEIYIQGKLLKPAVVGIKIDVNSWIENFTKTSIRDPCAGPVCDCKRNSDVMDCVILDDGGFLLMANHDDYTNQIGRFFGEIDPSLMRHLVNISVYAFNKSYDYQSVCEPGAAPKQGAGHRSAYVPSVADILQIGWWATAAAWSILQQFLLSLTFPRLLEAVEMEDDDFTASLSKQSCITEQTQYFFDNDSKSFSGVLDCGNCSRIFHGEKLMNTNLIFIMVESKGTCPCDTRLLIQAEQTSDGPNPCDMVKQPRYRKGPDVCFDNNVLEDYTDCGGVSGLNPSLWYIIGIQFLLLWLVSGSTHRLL

SMILES	Ki
CNCCC(Oc1cccc(C(=O)Nc2cccnc2)c1)c1cccs1 (centres unmarked) [Example 8, 3-(3-(Methylamino)-1-(thiophen-2-yl)propoxy)-N-(pyridin-3-yl)benzamide]	500 to 3000 nM
CNCCC(OCc1cccc(N(C)C(=O)c2cnc(SC)nc2)c1)c1ccccc1 (centres unmarked) [Example 35, N-methyl-N-(3-((3-(methylamino)-1-phenylpropoxy)methyl)phenyl)-2-(methylthio)pyrimidine-5-carboxamide]	≥ 3000 nM
CCNc1ncc(C(=O)Nc2cccc(COC(CCNC)c3cccs3)c2)c(N2CCCC2)n1 (centres unmarked) [Example 49, 2-(Ethylamino)-N-(3-((3-(methylamino)-1-(thiophen-2-yl)propoxy)methyl)phenyl)-4-(pyrrolidin-1-yl)pyrimidine-5-carboxamide]	500 to 3000 nM
CNCCC(OCc1cccc(NC(=O)c2ccccc2N(C)C)c1)c1cccs1 (centres unmarked) [Example 47, 2-(Dimethylamino)-N-(3-((3-(methylamino)-1-(thiophen-2-yl)propoxy)methyl)phenyl)benzamide]	≥ 3000 nM
CCNCc1cccc(OC(CCNC)c2cccs2)c1 (centres unmarked) [Example 5, 3-(3-((Ethylamino)methyl)phenoxy)-N-methyl-3-(thiophen-2-yl)propan-1-amine]	100 to 500 nM
CNCCC(Oc1cccc(C(=O)Nc2ccccc2CN(C)C)c1)c1cccs1 (centres unmarked) [Example 11, N-(2-((dimethylamino)methyl)phenyl)-3-(3-(methylamino)-1-(thiophen-2-yl)propoxy)benzamide]	500 to 3000 nM
CNCCC(Oc1cccc(C(=O)NCc2ccccc2)c1)c1cccs1 (centres unmarked) [Example 10, N-benzyl-3-(3-(methylamino)-1-(thiophen-2-yl)propoxy)benzamide]	500 to 3000 nM
CNCCC(OCc1cccc(N(C)C(=O)c2ccccn2)c1)c1ccccc1 (centres unmarked) [Example 36, N-methyl-N-(3-((3-(methylamino)-1-phenylpropoxy)methyl)phenyl)picolinamide]	≥ 3000 nM
CNCCC(Oc1cccc(N(C)C(=O)c2ccccc2)c1)c1ccccc1 (centres unmarked) [Example 23, N-methyl-N-(3-(3-(methylamino)-1-phenylpropoxy)phenyl) benzamide]	≥ 3000 nM
CNCCC(Oc1cccc(C(=O)NCc2ccccn2)c1)c1cccs1 (centres unmarked) [Example 7, 3-(3-(Methylamino)-1-(thiophen-2-yl)propoxy)-N-(pyridin-2-ylmethyl)benzamide]	≥ 3000 nM
CNCCC(Oc1cccc(C(=O)Nc2ccccc2N(C)C)c1)c1cccs1 (centres unmarked) [Example 12, N-(2-(dimethylamino)phenyl)-3-(3-(methylamino)-1-(thiophen-2-yl)propoxy)benzamide]	500 to 3000 nM
CNCCC(OCc1cccc(N(C)C(=O)c2cncnc2)c1)c1ccccc1 (centres unmarked) [Example 34, N-methyl-N-(3-((3-(methylamino)-1-phenylpropoxy)methyl)phenyl)pyrimidine-5-carboxamide]	≥ 3000 nM
CNCCC(OCc1cccc(N(C)C(=O)c2cnc(OC)nc2)c1)c1ccccc1 (centres unmarked) [Example 33, 2-Methoxy-N-methyl-N-(3-((3-(methylamino)-1-phenylpropoxy)methyl)phenyl)pyrimidine-5-carboxamide]	≥ 3000 nM
CCNC(=O)c1cccc(OC(CCNC)c2ccccc2)c1 (centres unmarked) [Example 19, N-ethyl-3-(3-(methylamino)-1-phenylpropoxy)benzamide]	≥ 3000 nM
CCNc1ncc(C(=O)Nc2cccc(COC(CCNC)c3ccccc3)c2)c(N2CCCC2)n1 (centres unmarked) [Example 45, 2-(Ethylamino)-N-(3-((3-(methylamino)-1-phenylpropoxy)methyl)phenyl)-4-(pyrrolidin-1-yl)pyrimidine-5-carboxamide]	500 to 3000 nM
CNCCC(OCc1cccc(NC(=O)c2cncnc2)c1)c1ccccc1 (centres unmarked) [Example 42, N-(3-((3-(methylamino)-1-phenylpropoxy)methyl)phenyl)pyrimidine-5-carboxamide]	≥ 3000 nM
CCN(Cc1ccccc1)Cc1cccc(OC(CCNC)c2cccs2)c1 (centres unmarked) [Example 1, 3-(3-((Benzyl(ethyl)amino)methyl)phenoxy)-N-methyl-3-(thiophen-2-yl)propan-1-amine]	100 to 500 nM
CCNc1ncc(C(=O)N(C)c2cccc(OC(CCNC)c3ccccc3)c2)c(N2CCCC2)n1 (centres unmarked) [Example 29, 2-(Ethylamino)-N-methyl-N-(3-(3-(methylamino)-1-phenylpropoxy)phenyl)-4-(pyrrolidin-1-yl)pyrimidine-5-carboxamide]	≥ 3000 nM
CNCCC(OCc1cccc(NC(=O)c2cccnc2)c1)c1ccccc1 (centres unmarked) [Example 40, N-(3-((3-(methylamino)-1-phenylpropoxy)methyl)phenyl)nicotinamide]	≥ 3000 nM
CCCC(=O)N(C)c1cccc(OC(CCNC)c2ccccc2)c1 (centres unmarked) [Example 25, N-methyl-N-(3-(3-(methylamino)-1-phenylpropoxy)phenyl)butyramide]	≥ 3000 nM
CCNc1ncc(C(=O)N(C)c2cccc(OC(CCNC)c3cccs3)c2)c(N2CCCC2)n1 (centres unmarked) [Example 30, 2-(Ethylamino)-N-methyl-N-(3-(3-(methylamino)-1-(thiophen-2-yl)propoxy)phenyl)-4-(pyrrolidin-1-yl)pyrimidine-5-carboxamide]	500 to 3000 nM
CNCCC(OCc1cccc(NC(=O)c2cnc(SC)nc2)c1)c1ccccc1 (centres unmarked) [Example 44, N-(3-((3-(methylamino)-1-phenylpropoxy)methyl)phenyl)-2-(methylthio)pyrimidine-5-carboxamide]	≥ 3000 nM
CNCCC(Oc1cccc(N(C)C(=O)c2cccnc2)c1)c1ccccc1 (centres unmarked) [Example 26, N-methyl-N-(3-(3-(methylamino)-1-phenylpropoxy)phenyl)nicotinamide]	≥ 3000 nM
CNCCC(OCc1cccc(N(C)C(=O)c2cccnc2)c1)c1ccccc1 (centres unmarked) [Example 32, N-methyl-N-(3-((3-(methylamino)-1-phenylpropoxy)methyl)phenyl)nicotinamide]	≥ 3000 nM
CCNc1ncc(C(=O)N(C)c2cccc(COC(CCNC)c3ccccc3)c2)c(N2CCCC2)n1 (centres unmarked) [Example 37, 2-(Ethylamino)-N-methyl-N-(3-((3-(methylamino)-1-phenylpropoxy)methyl)phenyl)-4-(pyrrolidin-1-yl)pyrimidine-5-carboxamide]	500 to 3000 nM
CNCCC(Oc1cccc(CNC)c1)c1cccs1 (centres unmarked) [Example 3, N-methyl-3-(3-((methylamino)methyl)phenoxy)-3-(thiophen-2-yl)propan-1-amine]	100 to 500 nM

Second part, the compound after the results:

Ki	SMILES
≥ 3000 nM	CNCCC(OCc1cccc(N(C(C)=O)c2ccccc2)c1)c1ccccc1 (centres unmarked) [Example 61, N-(3-((3-(methylamino)-1-phenylpropoxy)methyl)phenyl)-N-phenylacetamide]
≥ 3000 nM	CCNc1ncc(C(=O)N(C)c2cccc(OC(CCNC)c3ccccc3)c2)cn1 (centres unmarked) [Example 60, 2-(Ethylamino)-N-methyl-N-(3-(3-(methylamino)-1-phenylpropoxy)phenyl)pyrimidine-5-carboxamide]
≥ 3000 nM	CNCCC(Oc1cccc(N(C)C(=O)c2cccnc2)c1)c1cccs1 (centres unmarked) [Example 65, N-methyl-N-(3-(3-(methylamino)-1-(thiophen-2-yl)propoxy)phenyl)nicotinamide]
500 to 3000 nM	CNCCC(Oc1cccc(C(=O)Nc2ccccc2)c1)c1cccs1 (centres unmarked) [Example 66, 3-(3-(Methylamino)-1-(thiophen-2-yl)propoxy)-N-phenylbenzamide]
≥ 3000 nM	CCCC(=O)N(C)c1cccc(OC(CCNC)c2cccs2)c1 (centres unmarked) [Example 64, N-methyl-N-(3-(3-(methylamino)-1-(thiophen-2-yl)propoxy)phenyl)butyramide]
500 to 3000 nM	CCNc1ncc(C(=O)Nc2cccc(OC(CCNC)c3cccs3)c2)c(N2CCCC2)n1 (centres unmarked) [Example 51, 2-(Ethylamino)-N-(3-(3-(methylamino)-1-(thiophen-2-yl)propoxy)phenyl)-4-(pyrrolidin-1-yl)pyrimidine-5-carboxamide]
≥ 3000 nM	CNCCC(Oc1cccc(N(C)C(=O)c2ccccc2)c1)c1cccs1 (centres unmarked) [Example 63, N-methyl-N-(3-(3-(methylamino)-1-(thiophen-2-yl)propoxy)phenyl)benzamide]
≥ 3000 nM	CN(C)CCC(OCc1cccc(NC(=O)c2ccccc2N(C)C)c1)c1cccs1 (centres unmarked) [Example 55, 2-(Dimethylamino)-N-(3-((3-(dimethylamino)-1-(thiophen-2-yl)propoxy)methyl)phenyl)benzamide]
≥ 3000 nM	CNCCC(Oc1cccc(C(=O)N(C)c2cccnc2)c1)c1ccccc1 (centres unmarked) [Example 68, N-methyl-3-(3-(methylamino)-1-phenylpropoxy)-N-(pyridin-3-yl)benzamide]
≥ 3000 nM	CNCCC(OCc1cccc(N(Cc2ccccc2)C(C)=O)c1)c1ccccc1 (centres unmarked) [Example 57, N-benzyl-N-(3-((3-(methylamino)-1-phenylpropoxy)methyl)phenyl) acetamide]
≥ 3000 nM	CNCCC(Oc1cccc(N(C)C(C)=O)c1)c1cccs1 (centres unmarked) [Example 62, N-methyl-N-(3-(3-(methylamino)-1-(thiophen-2-yl)propoxy)phenyl)acetamide]
≥ 3000 nM	CNCCC(Oc1cccc(C(=O)N(C)c2ccccc2)c1)c1ccccc1 (centres unmarked) [Example 69, N-methyl-3-(3-(methylamino)-1-phenylpropoxy)-N-phenylbenzamide]
≥ 3000 nM	CNCCC(OCc1cccc(NCc2cncnc2)c1)c1ccccc1 (centres unmarked) [Example 53, 3-((3-(Methylamino)-1-phenylpropoxy)methyl)-N-(pyrimidin-5-ylmethyl)aniline]
≥ 3000 nM	CNCCC(OCc1cccc(Nc2ncccn2)c1)c1ccccc1 (centres unmarked) [Example 59, N-(3-((3-(methylamino)-1-phenylpropoxy)methyl)phenyl)pyrimidin-2-amine]
≥ 3000 nM	CNCCC(OCc1cccc(NCc2ccccc2)c1)c1ccccc1 (centres unmarked) [Example 52, N-benzyl-3-((3-(methylamino)-1-phenylpropoxy)methyl)aniline]
